Reference: ChEMBL document CHEMBL5725292, “Substituted benzamides and methods of use thereof” (2017)

Assay: Radioligand Binding Assay: Binding of this radioligand was preformed in 5 mL borosilicate glass test tubes at room temperature. Binding was initiated by adding membranes to increasing concentrations of [3H]compound in 100 mMNaCl, 20 mMTrisHCl, pH 7.4 buffer containing 0.01% w/v bovine serum albumin (BSA) for 18 h. Non-specific binding was determined in the presence of 1 uM unlabelled compound. …
Design: species or system Homo sapiens
Description: Radioligand Binding Assay: Binding of this radioligand was preformed in 5 mL borosilicate glass test tubes at room temperature. […] Non-specific binding was determined in the presence of 1 uM unlabelled compound. […] [3H]compound bound to filters was quantified by liquid scintillation counting.

| Structure (SMILES) | IC50 [nM] |
| --- | --- |
| O=C(NS(O)(O)C1CC1)c1cc(C2CC2)c(CN2CCC(Oc3ccc(F)cc3Cl)CC2)cc1F | 14 |
| COC[C@H](c1cc(Cl)cc(Cl)c1)N1CCC[C@@H](Oc2cc(F)c(C(=O)NS(C)(=O)=O)cc2C2CC2)C1 | 6 |
